This note sets out measurements from ChEMBL document CHEMBL4130367, “Click chemistry-based synthesis and anticancer activity evaluation of novel C-14 1,2,3-triazole dehydroabietic acid hybrids” (Eur J Med Chem, 2017).

Calls of active or inactive are those of the source. No cut-off for these calls is given here. A value given as a limit tells only on which side of the number the result lay.

For series [1], the system named is MDA-MB-231. Kind of series: Downregulation of NFkB p65 protein expression in human MDA-MB-231 cells up to 1 uM after 48 hrs by Western blot analysis. Type of series: functional, cell-based. In general terms: A western blot detects proteins with antibodies after separation by electrophoresis.
Series [2] can be described thus: Selectivity index, ratio of IC50 for HFF cells to IC50 for human LNCAP cells. The series is classed as toxicity. The conditions noted are these: HFF cells versus LNCAP cells, read-out: Ratio IC50.
Series [3] can be described thus: Metabolic stability in mouse liver microsomes assessed as parent compound remaining after 60 mins in presence of NADPH by HPLC analysis. The series is classed as ADME, microsome. The following applies: read-out: Stability.
Series [4] is described as follows: Metabolic stability in rat liver microsomes assessed as parent compound remaining after 90 mins in presence of NADPH by HPLC analysis. The following applies: read-out: Stability. The series is classed as ADME, microsome. In general terms: Liver microsomes are vesicles of endoplasmic reticulum, rich in cytochrome P450 enzymes.
A short description of series [5]: Metabolic stability in rat liver microsomes assessed as parent compound remaining after 150 mins in presence of NADPH by HPLC analysis. Type of series: ADME, microsome. The conditions noted are these: read-out: Stability.
Series [6] in a line: Metabolic stability in dog liver microsomes assessed as parent compound remaining after 60 mins in presence of NADPH by HPLC analysis. Type of series: ADME, Canis lupus familiaris, microsome. The conditions noted are these: read-out: Stability.
A short description of series [7]: Selectivity index, ratio of IC50 for human HL7702 cells to IC50 for human SKBR3 cells. The series is classed as toxicity. The following applies: HL7702 cells versus SKBR3 cells, read-out: Ratio IC50.
The subject of series [8] is U-251. Put plainly: Cytotoxicity against human U251 cells assessed as reduction in cell viability after 72 hrs by MTT assay. Type of series: functional, cell-based. The following applies: U-251, 72 h. (Tetrazolium dyes change colour on reduction, which living cells bring about.)
The nature of series [9]: Selectivity index, ratio of IC50 for human HL7702 cells to IC50 for human A549 cells. The series is classed as toxicity. The conditions noted are these: HL7702 cells versus A549 cells, read-out: Ratio IC50.
Series [10] concerns MDA-MB-231. Put plainly: Induction of apoptosis in human MDA-MB-231 cells assessed as downregulation of Bcl2 protein expression after 48 hrs by Western blot analysis. Type of series: functional, cell-based.
Series [11] has as its system NCI/ADR-RES. Put plainly: Growth inhibition of human MCF7/ADR cells at 2.5 to 5 uM after 72 hrs by MTT assay relative to control. Type of series: functional.
The nature of series [12]: Metabolic stability in dog liver microsomes assessed as parent compound remaining after 30 mins in presence of NADPH by HPLC analysis. Type of series: ADME, Canis lupus familiaris, microsome. The conditions noted are these: read-out: Stability.
Series [13] in a line: Metabolic stability in mouse liver microsomes assessed as parent compound remaining after 180 mins in presence of NADPH by HPLC analysis. The series is classed as ADME, microsome. The following applies: read-out: Stability.
The subject of series [14] is A549. Kind of series: Induction of apoptosis in human A549 cells assessed as genomic DNA fragmentation at 2.5 uM after 24 hrs by DAPI/TUNEL staining based spectrofluorometric method. The series is classed as functional, cell-based.
A short description of series [15]: Selectivity index, ratio of IC50 for human HL7702 cells to IC50 for human HCT116 cells. Type of series: toxicity. The following applies: HL7702 cells versus HCT116 cells, read-out: Ratio IC50.
Series [16] has as its system HCT-116. Kind of series: Cytotoxicity against human HCT116 cells assessed as reduction in cell viability after 72 hrs by MTT assay. The series is classed as functional, cell-based. The following applies: HCT-116, 72 h.

As a reminder, the IC50 is the concentration that gives 50% inhibition. Consider `COC(=O)[C@]1(C)CCC[C@]2(C)c3ccc(C(C)C)c(NC(=O)Cn4cc(-c5cccc(NC(=O)OC(C)(C)C)c5)nn4)c3CC[C@@H]12`, for which the result in series [1], in series [10] and in [14] was Active. In addition, the selectivity ratio in [2] stood at 8.6; in series [7] it was 8.4; in series [9] it was 6.1; in [15], 7.9. In addition, the remaining at 1 h was 72.6% in series [3] and 59% in series [6]. The remaining at 1.5 h in series [4] came to 70.5%. Moreover, the remaining at 2.5 h in [5] was 42.1%. Further, the figures for the IC50 in [8] and in series [16] were 1.8 µM and 1 µM, respectively. Further, the “growth inhibition (GI)” value in [11] is >50%. Besides, the remaining at 0.5 h in series [12] came out at 77.3%. Further, in [13], the remaining at 3 h stood at 11.1%.
